Assay results as given in article PMC10666548, “Identification of the bacterial metabolite aerugine as potential trigger of human dopaminergic neurodegeneration” (Environment international, 2023).
Like-named read-outs stand apart in the source and are kept apart here.

What was measured:
[1] = Cytotoxicity to mature (d6) LUHMES neurons, calcein-AM & H-33342 high content imaging; type: cell-based, human; conditions: human, mature LUHMES d6, 24 h exposure; read-out: EC50 (half-maximal cytotoxic potency), cell viability
Experimental: (§1) For toxicity assessment of mature LUHMES neurons, precursor cells were pre-differentiated for 2 days in cell culture flasks pre-coated as described above and differentiation medium. Then, 45′000 cells per well were seeded in differentiation medium into standard 96-well plates pre-coated as described above. They were incubated at 37 °C and 5% CO2 for 4 days before compound treatment. At this time, cells were >99% post-mitotic and had established an extensive neurite network ([Scholz et al., 2011]) The cell viability was assessed via the Calcein/Hoechst readout, the LDH assay and the resazurin reduction assay.
(§2) Neurite area (NA) and viability (V) were assessed as described previously ([Stiegler et al., 2011]). In brief, cells were stained with 1 μM calcein-AM and 1 μg/ml H-33342 for 30 min at 37 °C and 5% CO2. Image acquisition was performed using an Array-Scan VTI HCS Reader (Cellomics, PA, USA) equipped with a Hamamatsu ORCA-ER camera. 10 fields per well were imaged with 2 channels at 20x magnification (2×2 pixel binning). Excitation/emission wavelengths of 365 ± 50/535 ± 45 nm were used for Hoechst detection in channel 1 and 474 ± 40/535 ± 45 nm were used for calcein detection in channel 2.
(§3) Nuclei were identified in channel 1 depending on intensity, area, size and shape. Their outlines were expanded by 3.2 μm to define a virtual cell soma area (VCSA), which was bigger than the average cell soma to prevent false positive NAs. All calcein-positive pixels were defined as viable cellular structures (VCSs). The NA was automatically calculated by excluding the VCSAs from the VCSs. Furthermore all nuclei co-localizing with VCSs were defined as alive.

[2] = system: human dopaminergic neurons (LUHMES cells); assay: as above; type: cell-based; conditions: for EC50: mature LUHMES d6, 24 h exposure, read-out: EC50 (half-maximal cytotoxic potency), cell viability
Experimental: as §1, §2, §3

LUHMES neurons = assay: LDH-release and resazurin reduction tests on d6 LUHMES; type: cell-based, human; conditions: 24 h
Experimental: The assay was performed as described earlier ([Latta et al., 2000]). In brief, supernatants were transferred to an un-coated 96-wellplate and cells were lysed in 110 μl of phosphate buffered saline (PBS) with 0.1% Triton-X100 for 1 h at room temperature. Lactate dehydrogenase (LDH) activity was assessed in the supernatant and the cell lysate individually by combining 10 μl sample with 100 μl potassium phosphate buffer pH 7.5 containing 640 μM pyruvate and […] NADH. NADH was quantified by measuring the absorption at 340 nm over 15 min and its decline was proportional to the LDH content. LDH release was calculated as the ratio of LDHsupernatant/LDHsupernatant+lysate.
The assay was performed as described previously ([Schildknecht et al., 2009]). In brief, cells were stained with 10 μg/ml resazurin and incubated for 30 min at 37 °C and 5% CO2. The fluorescence of resazurin was detected with an excitation wavelength of 530 nm, using a 590 nm long-pass filter to record the emission. […]
Supplementary Figure S7: Viability endpoints measured on d6 LUHMES treated with aerugine Cultures of differentiated LUHMES neurons were exposed on d6 to serial dilutions of aerugine for 24 h. The cell viability (V), neurite area (NA) were assessed 24 h later by calcein-AM & H-33342 staining and high content imaging. Resazurin reduction and LDH release were measured subsequently. […]

d3 LUHMES cells = assay: Aerugine toxicity in glucose vs galactose medium; type: cell-based, human
Experimental: Ückert et al. (2023): Identification of the bacterial metabolite aerugine as potential trigger of human dopaminergic […]
A The effect of aerugine on respiratory function was analysed in d3 LUHMES cells. The oxygen consumption rate of the individual technical replicates is shown. The oxygen consumption rate is normalised to the last measurement before injection. The injections of aerugine, control and the subsequent assay tool compounds are indicated (FCCP: 1.5 µM; oligomycin: 1 µM; rotenone + antimycin A: 0.5 µM +0.5 µM). B Several parameters were derived from the oxygen consumption rate. The data is presented as means ± SD of four replicates (obtained from one cell batch). Statistical analysis was performed using a one-way ANOVA with Dunnett‘s multiple comparisons test. * = p < 0.0001. C Delp et al. (2019) determined the dependence of LUHMES cells on glycolysis and their mitochondria for ATP production in two different media conditions. […]
mitochondrial metabolism in producing ATP in the two different media. D Aerugine toxicity was assessed in d3 LUHMES cells cultured in glucose and in galactose medium. Cell viability was assessed by calcein-AM & H-33342 staining and automated fluorescence microscopy. Double positive cells were counted as viable, H-33342 mono-positive cells were counted as dead.

other neurons = assay: Toxicity for other neurons (abstract summary); type: cell-based; conditions: Homo sapiens, Neuron, read-out: half-maximal toxicity for other neurons
Enterococcus faecalis = assay: Bacterial growth assay; type: cell-based; conditions: 20 μM, log growth phase
Experimental: Enterococcus faecalis was grown in BHI medium (BD Difco Brain Heart Infusion) with 36 g/l supplemented with 20 μg/ml hemin, 20 μg/ml NAD and 15 g/l agar for plates. Enterococcus faecalis strain 438 originates from eye isolate. Neisseria gonorrhoeae strain MS11 was gifted by T. F. Meyer (Max-Planck-Institute for Infection Biology, Berlin, Germany) ([Edwards et al., 1984]).
Bacteria were grown as described above on solid medium. Prior to substance exposure, bacteria were pre-cultured in liquid medium for at least 2 h. Optical density was determined and a volume equal to an OD550 of 0.2 for Neisseria gonorrhoeae MS11 (equates a final OD550 of 0.04) and an OD600 of 0.2 for Enterococcus faecalis (equates a final OD600 of 0.04) was inoculated into 5 ml of the respective liquid medium. Compound was added at the indicated amounts. Dimethyl sulfoxide (DMSO) level was adjusted to 1 % of final concentration including DMSO control. Samples were incubated for either 10.5 h, until they reached a stationary phase (three measured values in stationary phase) or until they reached an OD of 2.5. Optical density was determined every 0.5 h at OD550 for Neisseria gonorrhoeae MS11 and at OD600 for Enterococcus faecalis. ([Szamosvári et al., 2019]).

## OCC1CSC(c2ccccc2O)=N1 (centres unmarked) [aerugine, 2-[4-(hydroxymethyl)-4,5-dihydro-1,3-thiazol-2-yl]phenol]
[1]
  EC50 at 24 h: 4.1 ± 0.8 µM
[2]; d6 LUHMES, 24 h (24 h and 48 h for purified compounds)
  cytotoxicity to DAergic neurons (viability): cytotoxic to DAergic neurons in a time- and concentration-dependent manner
[2]; d6 LUHMES, 24 h assay setup
  effect on neurite area: affected neurites to the same extent and at similar concentrations as cell bodies
[2]; d6 LUHMES, purified compound
  cytotoxic potency range: low μM range
[2]; listed as Aerugine
  EC50: 3 to 4 µM
[2]
  EC50: 3.1 ± 0.7 µM
[2]; mature vs proliferating LUHMES
  increase of aerugine sensitivity by neuronal maturity state: approximately three-fold
LUHMES neurons
  LDH-release and resazurin reduction viability: confirmed the single cell data, although with slightly less sensitivity
d3 LUHMES cells
  toxicity in galactose vs glucose medium: no increased aerugine toxicity was observed
Other neurons
  EC50: 10 to 20 µM
Enterococcus faecalis
  viability or growth: not affected in viability or growth
